# Test results taken from patent US12215093B2, “Bicyclic carboxamides and methods of use thereof” (Tempest Therapeutics, Inc., priority 2018, dated 2025).
# How the values were obtained:
# EP2 = EP2 (Homo sapiens, UniProt P43116);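 further: functional calcium flux assay in stably transfected HEK293 cells expressing EP2 coupled via a promiscuous G protein, clytin luminescence read as area under the curve, 30 min compound preincubation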
# Method: (§1) Each receptor subtype has an additional promiscuous G protein added in order to couple the aforementioned receptor to the calcium signaling pathway. The parental cell line used also expresses a novel variant of clytin, a calcium-activated photo-protein, to enable sensitive luminescent detection. Briefly, cells were plated at 50,000 cells-per-well in black, clear bottom 96-well plates. The plated cells were allowed to sit at room temperature for 30 min prior to transferring to a humidified, 37° C., 5% CO2 incubator for 18 to 24 h. Assay buffer (HBSS with 20 mM HEPES) and loading buffer (assay buffer plus 10 μM coelenterazine) were prepared on the day of the assay. Assays were performed by aspirating media from the assay plate and washing once with assay buffer, then replacing with loading buffer and allowing the cells to incubate for 1.5 h at room temperature. Compounds were prepared in assay buffer at a 3× final concentration in non-binding plates. Compounds were added to the cell plates and incubated for 30 min at room temperature. The prostanoid receptor ligand PGE2 was prepared at a 4× dilution ratio for a final concentration of 10 nM. Plates were run on a Flexstation™ using a 100 ms integration luminescence protocol for a total of 60 sec with ligand addition at 15 sec. Data were obtained from relative light units as measured by area under the curve.
# EP4 = target: T1, EP4 (Homo sapiens, UniProt P35408); assay: Functional calcium flux assay, EP4; format: cell-based; conditions: stably transfected HEK293 cells; PGE2 10 nM; read-out: EP4 Ca2+-flux assay IC50
# T1 construct: host or cells: stably transfected HEK293 cells co-expressing a promiscuous G protein and a clytin variant
# T1 sequence (P35408 whole entry): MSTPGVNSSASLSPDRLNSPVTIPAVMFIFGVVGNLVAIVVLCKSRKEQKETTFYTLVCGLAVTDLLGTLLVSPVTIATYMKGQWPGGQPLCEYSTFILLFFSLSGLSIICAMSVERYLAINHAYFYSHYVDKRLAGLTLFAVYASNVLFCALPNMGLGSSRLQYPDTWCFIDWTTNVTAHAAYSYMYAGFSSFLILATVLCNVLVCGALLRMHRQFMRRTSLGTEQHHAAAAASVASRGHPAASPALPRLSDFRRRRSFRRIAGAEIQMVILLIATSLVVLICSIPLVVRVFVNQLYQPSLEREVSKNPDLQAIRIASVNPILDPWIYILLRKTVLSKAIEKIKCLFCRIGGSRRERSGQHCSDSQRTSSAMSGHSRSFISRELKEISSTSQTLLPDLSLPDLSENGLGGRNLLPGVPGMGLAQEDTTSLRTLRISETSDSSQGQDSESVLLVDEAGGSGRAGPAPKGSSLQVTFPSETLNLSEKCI
# Method: as §1
# Chain of EP2 (P43116 whole entry): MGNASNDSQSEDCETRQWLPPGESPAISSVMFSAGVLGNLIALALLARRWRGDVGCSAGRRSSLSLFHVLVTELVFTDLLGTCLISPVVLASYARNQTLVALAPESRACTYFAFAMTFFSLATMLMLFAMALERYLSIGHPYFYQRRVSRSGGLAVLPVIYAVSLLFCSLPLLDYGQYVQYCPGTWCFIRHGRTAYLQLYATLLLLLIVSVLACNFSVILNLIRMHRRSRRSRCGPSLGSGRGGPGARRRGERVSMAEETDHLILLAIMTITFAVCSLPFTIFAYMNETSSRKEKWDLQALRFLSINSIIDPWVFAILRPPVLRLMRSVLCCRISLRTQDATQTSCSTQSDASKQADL
Compound,IC50 (EP2) [nM],IC50 (EP4) [nM]
"COc1ccc2cc(Cn3ccc4c(F)ccc(C(=O)NC5CC6(C5)CC(C(=O)O)C6)c43)ccc2c1 (stereo not shown) [Example 38, (Sa)-6-(4-fluoro-1-((6-methoxynaphthalen-2-yl)methyl)-1H-indole-7-carboxamido)spiro[3.3]heptane-2-carboxylic acid]",< 25,< 1
"COc1ccc2ccc(Cn3ccc4c(F)ccc(C(=O)NC5CC6(C5)CC(C(=O)O)C6)c43)cc2c1 (stereo not shown) [Example 40, (Sa)-6-(4-fluoro-1-((7-methoxynaphthalen-2-yl)methyl)-1H-indole-7-carboxamido)spiro[3.3]heptane-2-carboxylic acid]",< 25,< 1
"O=C(NC1CC2(C1)CC(C(=O)O)C2)c1ccc(F)c2ccn(Cc3ccc4cc(Br)ccc4c3)c12 (stereo not shown) [Example 42, (Sa)-6-(1-((6-bromonaphthalen-2-yl)methyl)-4-fluoro-1H-indole-7-carboxamido)spiro[3.3]heptane-2-carboxylic acid]",37,< 1
O=C(NC1CC2(C1)CC(C(=O)O)C2)c1ccc(F)c2ccn(Cc3ccc4c(Br)cccc4c3)c12 (stereo not shown) [Example 43],< 25,< 1
"O=C(NC1CC2(C1)CC(C(=O)O)C2)c1ccc(F)c2ccn(Cc3ccc4ccc(Br)cc4c3)c12 (stereo not shown) [Example 44, (Sa)-6-(1-((7-bromonaphthalen-2-yl)methyl)-4-fluoro-1H-indole-7-carboxamido)spiro[3.3]heptane-2-carboxylic acid]",30,< 1
"COc1cc(-c2ccc(Cn3ccc4c(F)ccc(C(=O)NC5CC6(C5)CC(C(=O)O)C6)c43)cc2)ccc1F (stereo not shown) [Example 46, (Sa)-6-(4-fluoro-1-((4’-fluoro-3’-methoxy-[1,1′-biphenyl]-4-yl)methyl)-1H-indole-7-carboxamido)spiro[3.3]heptane-2-carboxylic acid]",88,< 1
"COc1ccc(-c2ccc(Cn3ccc4c(F)ccc(C(=O)NC5CC6(C5)CC(C(=O)O)C6)c43)cc2)cc1F (stereo not shown) [Example 47, (Sa)-6-(4-fluoro-1-((3’-fluoro-4’-methoxy-[1,1′-biphenyl]-4-yl)methyl)-1H-indole-7-carboxamido)spiro[3.3]heptane-2-carboxylic acid]",79,< 1
"CCOc1cc(-c2ccc(Cn3ccc4c(F)ccc(C(=O)NC5CC6(C5)CC(C(=O)O)C6)c43)cc2)ccn1 (stereo not shown) [Example 48, (Sa)-6-(1-(4-(2-ethoxypyridin-4-yl)benzyl)-4-fluoro-1H-indole-7-carboxamido)spiro[3.3]heptane-2-carboxylic acid]",27,< 1
"COc1cc(C#N)cc(-c2ccc(Cn3ccc4c(F)ccc(C(=O)NC5CC6(C5)CC(C(=O)O)C6)c43)cc2)c1 (stereo not shown) [Example 49, (Sa)-6-(1-((3’-cyano-5’-methoxy-[1,1′-biphenyl]-4-yl)methyl)-4-fluoro-1H-indole-7-carboxamido)spiro[3.3]heptane-2-carboxylic acid]",< 25,< 1
"O=C(NC1CC2(C1)CC(C(=O)O)C2)c1ccc(F)c2ccn(Cc3ccc(-c4cccc(OC(F)F)c4)cc3)c12 (stereo not shown) [Example 50, (Sa)-6-(1-((3’-(difluoromethoxy)-[1,1′-biphenyl]-4-yl)methyl)-4-f1uoro-1H-indole-7-carboxamido)spiro[3.3]heptane-2-carboxylic acid]",67,< 1
"COc1ccc(-c2ccc(Cn3ccc4c(F)ccc(C(=O)NC5CC6(C5)CC(C(=O)O)C6)c43)cc2)cc1 (stereo not shown) [Example 51, (Sa)-6-(4-fluoro-1-((4’-methoxy-[1,1′-biphenyl]-4-yl)methyl)-1H-indole-7-carboxamido)spiro[3.3]heptane-2-carboxylic acid]",< 25,< 1
"COc1cc(F)cc(-c2ccc(Cn3ccc4c(F)ccc(C(=O)NC5CC6(C5)CC(C(=O)O)C6)c43)cc2)c1 (stereo not shown) [Example 53, (Sa)-6-(4-fluoro-1-((3’-fluoro-5’-methoxy-[1,1′-biphenyl]-4-yl)methyl)-1H-indole-7-carboxamido)spiro[3.3]heptane-2-carboxylic acid]",< 25,< 1
"N#Cc1cccc(-c2ccc(Cn3ccc4c(F)ccc(C(=O)NC5CC6(C5)CC(C(=O)O)C6)c43)cc2)c1 (stereo not shown) [Example 55, (Sa)-6-(1-((3’-cyano-[1,1′-biphenyl]-4-yl)methyl)-4-fluoro-1H-indole-7-carboxamido)spiro[3.3]heptane-2-carboxylic acid]",46,< 1
"O=C(NC1CC2(C1)CC(C(=O)O)C2)c1ccc(F)c2ccn(Cc3ccc(-c4cccc(OC5COC5)c4)cc3)c12 (stereo not shown) [Example 57, (Sa)-6-(4-fluoro-1-((3′-(oxetane-3-yloxy)-[1,1′-biphenyl]-4-yl)methyl)-1H-indole-7-carboxamido)spiro[3.3]heptane-2-carboxylic acid]",99,< 1
"CCOc1nccc(-c2ccc(Cn3ccc4c(F)ccc(C(=O)NC5CC6(C5)CC(C(=O)O)C6)c43)cc2)n1 (stereo not shown) [Example 58, (Sa)-6-(1-(4-(2-ethoxypyrimidin-4-yl)benzyl)-4-fluoro-1H-indole-7-carboxamido)spiro[3.3]heptane-2-carboxylic acid]",95,2.4
"COc1cc(C#N)cc(-c2ccc(Cn3ccc4c(F)ccc(C(=O)NC5CC6(C5)CC(C(=O)O)C6)c43)cc2)n1 (stereo not shown) [Example 59, (Sa)-6-(1-(4-(4-cyano-6-methoxypyridin-2-yl)benzyl)-4-fluoro-1H-indole-7-carboxamido)spiro[3.3]heptane-2-carboxylic acid]",51,2.5
"CNC(=O)c1cc(-c2ccc(Cn3ccc4c(F)ccc(C(=O)NC5CC6(C5)CC(C(=O)O)C6)c43)cc2)ccn1 (stereo not shown) [Example 60, (Sa)-6-(4-fluoro-1-(4-(2-(methylcarbamoyl)pyridin-4-yl)benzyl)-1H-indole-7-carboxamido)spiro[3.3]heptane-2-carboxylic acid]",40,< 1
"CCNC(=O)c1cc(-c2ccc(Cn3ccc4c(F)ccc(C(=O)NC5CC6(C5)CC(C(=O)O)C6)c43)cc2)ccn1 (stereo not shown) [Example 61, (Sa)-6-(1-(4-(2-(ethylcarbamoyl)pyridin-4-yl)benzyl)-4-fluoro-1H-indole-7-carboxamido)spiro[3.3]heptane-2-carboxylic acid]",< 25,< 1
"CNC(=O)c1cccc(-c2ccc(Cn3ccc4c(F)ccc(C(=O)NC5CC6(C5)CC(C(=O)O)C6)c43)cc2)n1 (stereo not shown) [Example 62, (Sa)-6-(4-fluoro-1-(4-(6-(methylcarbamoyl)pyridin-2-yl)benzyl)-1H-indole-7-carboxamido)spiro[3.3]heptane-2-carboxylic acid]",54,< 1
"CNC(=O)c1ccc(-c2ccc(Cn3ccc4c(F)ccc(C(=O)NC5CC6(C5)CC(C(=O)O)C6)c43)cc2)cn1 (stereo not shown) [Example 63, (Sa)-6-(4-fluoro-1-(4-(6-(methylcarbamoyl)pyridin-3-yl)benzyl)-1H-indole-7-carboxamido)spiro[3.3]heptane-2-carboxylic acid]",90,< 1
"O=C(NC1CC2(C1)CC(C(=O)O)C2)c1ccc(F)c2ccn(Cc3ccc(-c4ccnc(C(F)F)c4)cc3)c12 (stereo not shown) [Example 64, (Sa)-6-(1-(4-(2-(difluoromethyl)pyridin-4-yl)benzyl)-4-fluoro-1H-indole-7-carboxamido)spiro[3.3]heptane-2-carboxylic acid]",48,< 1
"O=C(NC1CC2(C1)CC(C(=O)O)C2)c1ccc(Cl)c2ccn(Cc3ccc(-c4ccccc4)cc3)c12 (stereo not shown) [Example 68, (Sa)-6-(1-([1,1′-biphenyl]-4-ylmethyl)-4-chloro-1H-indole-7-carboxamido)spiro[3.3]heptane-2-carboxylic acid]",< 25,< 1
COc1cc(-c2ccc(Cn3ccc4c(Cl)ccc(C(=O)NC5CC6(C5)CC(C(=O)O)C6)c43)cc2)ccn1 (stereo not shown) [Example 69],33,2.2
"CCOc1cc(-c2ccc(Cn3ccc4c(Cl)ccc(C(=O)NC5CC6(C5)CC(C(=O)O)C6)c43)cc2)ccn1 (stereo not shown) [Example 70, (Sa)-6-(4-chloro-1-(4-(2-ethoxypyridin-4-yl)benzyl)-1H-indole-7-carboxamido)spiro[3.3]heptane-2-carboxylic acid]",< 25,< 1
"O=C(NC1CC2(C1)CC(C(=O)O)C2)c1ccc(Cl)c2cnn(Cc3ccc(-n4cccn4)cc3)c12 (stereo not shown) [Example 73, (Sa)-6-(1-(4-(1H-pyrazol-1-yl)benzyl)-4-chloro-1H-indazole-7-carboxamido)spiro[3.3]heptane-2-carboxylic acid]",71,1.3
"CCOc1cc(-c2ccc(Cn3ncc4c(Cl)ccc(C(=O)NC5CC6(C5)CC(C(=O)O)C6)c43)cc2)ccn1 (stereo not shown) [Example 79, (Sa)-6-(4-chloro-1-(4-(2-ethoxypyridin-4-yl)benzyl)-1H-indazole-7-carboxamido)spiro[3.3]heptane-2-carboxylic acid]",< 25,< 1
"N#Cc1cccc(-c2ccc(Cn3ncc4c(Cl)ccc(C(=O)NC5CC6(C5)CC(C(=O)O)C6)c43)cc2)c1 (stereo not shown) [Example 80, (Sa)-6-(4-chloro-1-((3′-cyano-[1,1′-biphenyl]-4-yl)methyl)-1H-indazole-7-carboxamido)spiro[3.3]heptane-2-carboxylic acid]",55,1.1
"O=C(NC1CC2(C1)CC(C(=O)O)C2)c1ccc(Cl)c2cnn(Cc3ccc(C4=CCCCC4)c(F)c3)c12 (stereo not shown) [Example 81, (Sa)-6-(4-chloro-1-((2-fluoro-2′3′4′5′-tetrahydro-[1,1’-biphenyl]-4-yl)methyl)-1H-indazole-7-carboxamido)spiro[3.3]heptane-2-carboxylic acid]",< 25,< 1
"O=C(NC1CC2(C1)CC(C(=O)O)C2)c1ccc(Cl)c2cnn(Cc3ccc(C4=CCCC4)c(F)c3)c12 (stereo not shown) [Example 82, (Sa)-6-(4-chloro-1-(4-(cyclopent-1-en-1-yl)-3-fluorobenzyl)-1H-indazole-7-carboxamido)spiro[3.3]heptane-2-carboxylic acid]",< 25,< 1
